Experimental data as given in patent US20100113613A1, “CYCLOHEXANE POLYALCOHOL FORMULATION FOR TREATMENT OF DISORDERS OF PROTEIN AGGREGATION” (WARATAH PHARMACEUTICALS, priority 2006, published 2010).

Columns and labels:
TgCRND8 mice [1] = test: TgCRND8 mice therapeutic dosing (5-6 months): synaptic density; type: in vivo; settings: therapeutic dosing regimen 5-6 months, p<0.001
[2] = Brain and CSF levels of inositols after one month ad libitum dosing (GC/MS), Example 2; type: in vivo, TgCRND8 mice; settings: mouse, in vivo
Method: Study drugs were administered either at 30 mg/kg by oral gavage, or ad libitum by dissolution in drinking water. For administration in drinking water, study drugs were dissolved at 10 mg/ml. The average amount of water taken from the bottle was 3 ml daily per animal. The average mouse weight was 33 g. […] Quantification of scyllo-cyclohexanehexyl and myo-inositol. Scyllo-cyclohexanehexyl and myo-cyclohexanehexyl levels in the brain and CSF were analyzed using gas chromatography/mass spectrometry. D-chiro-inositol was used as an internal control, as it is not present in these biological samples. Derivatization: To increase the volatility and thermal stability of these compounds and to allow for proper peak separation, these samples need to first be derivatized. The derivatization was adapted from a method presented previously (Shetty, H U, et al, 1995, Anal. Biochem. 224:279-85), where the hydroxyl groups of the cyclohexanehexyl were replaced with acetyl groups. […] Similarly, a 5-15 μl sample of CSF was mixed with 1 ml of methanol and allowed to stand at room temperature for 5 minutes. The resulting suspension was centrifuged (5 min, 5000×g) and the supernatant transferred to a glass tube (Teflon-lined cap). […] These samples were then evaporated to complete dryness (Speedvac; 60° C.). […] This mixture was flushed with dry nitrogen, securely capped and the tubes heated (80° C.; 30 min). Following derivatization, samples were cooled (RT) and the unreacted acetylating reagent evaporated using a steady stream of nitrogen gas. The derivatized products were re-dissolved (4 ml; hexane-ethyl acetate (80:20, v/v)) and washed with 1 ml of 5% sodium hydrogencarbonate solution. […] The residue was reconstituted in 100 μl; ethyl acetate. 1 μL of this was injected into the GC/MS system. A similar procedure was followed using stock concentrations of scyllo- and myo-cyclohexanehexols, which were then used to generate concentration curves (in this case the internal standard was derivatized separately and then added). GC/MS was performed using a Perkin Elmer TurboMass Autosystem XL, with a quadrupole mass spectrometer and electron ionization. Gas chromatography was performed using a 30 m×0.25 mm×0.25 μm ZB 5 (5% diphenyl/95% dimethylpolysiloxane) column, using the carrier gas Helium (1 ml/min). Samples were injected with the split set to 50 at 1 min and 0 at 5 min, the injector temperature was set at 300° C. and an initial oven temperature of 80° C. After a hold of 1 min, the temperature was ramped at 45° C./min to 187° C. and held there for 15 min. […] Sample peaks were analyzed using selected-ion monitoring, using m/z 168 for determining cyclohexanehexyl levels in the brain and CSF and m/z 373 for determining cyclohexanehexyl levels in plasma, as monitoring the larger ion reduced noise. […]

TgCRND8 mice [3] = test: TgCRND8 effective dose range (0.3-3.3 mg/kg/day, 3 to 4 months): Morris Water Maze; type: in vivo; settings: for effect on cognitive dysfunction and plaque burden: oral gavage twice daily
Method: The highest possible dose level of scyllo-cyclohexanehexyl compound was administered in a CRND8 mouse model. […]8 mice were dosed for 28 days from 3 to 4 months of age, i.e. a time when the disease phenotype would be newly established. This study design was selected to enhance the efficiency of the study (dose earlier) and maximise the information obtained (dose at a time when changes are of sufficient magnitude to detect a treatment effect). […] Cognitive function and plaque burden were assessed. • Improvement of cognitive function: Animals were assessed using the Morris Water Maze at 4 months (FIG. 11). […] This path length was similar to that observed in previous experiments in mice dosed with the compound in drinking water ad libitum. […] Thus a clear dose response was observed.

Aβ42 = biological target: T1, Aβ42 (Homo sapiens, UniProt P05067); test: TgCRND8 dose response, dosed 5-6 months once daily: Aβ42 in brain homogenates by ELISA; type: in vivo; settings: CRND8 mice 5-6 months, oral
T1 construct: from tissue; host or cells: brain homogenate (and plasma) of TgCRND8 transgenic mice
T1 sequence (P05067 672-713): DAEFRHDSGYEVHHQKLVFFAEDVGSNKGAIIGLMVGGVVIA
Method: Dose response was further examined in animals dosed from 5-6 months of age. Disease is more advanced at this later time point, so there may be greater clinical relevance. The dose levels investigated were 5, 10 and 30 mg/kg or vehicle, once daily. Accumulation of Aβ42 was assessed. • Reduction in amyloid accumulation in the brain: Levels of Aβ42 in brain homogenates were assessed by ELISA.

[4] = tested on: rats infused intracerebroventricularly; test: Cognitive dysfunction in rats infused intracerebroventricularly with Aβ oligomers; type: in vivo, rat; settings: rats infused icv with oligomers
Method: More complex systems provide support for 5 μM (0.9 μg/mL) as an effective local concentration of the scyllo-cyclohexanehexyl. […] The effectiveness of this concentration was confirmed in acute cognitive dysfunction study in rats. In the clinic, effective local concentrations of a scyllo-cyclohexanehexyl will need to be achieved following oral dosing. Three studies have examined the effective dose range of a scyllo-cyclohexanehexyl following oral dosing. […] In rats infused intracerebroventricularly (icy) with All oligomers, approximately 30 mg/kg/day (the lowest dose administered orally) provided effective alleviation of cognitive dysfunction. Therefore, considering 2 species, different animal ages and different endpoints, a dose level ranging between 3-30 mg/kg/day has consistently shown efficacy.

Molecule	synaptic density (TgCRND8 mice [1])	increase of scyllo-cyclohexanehexyl level in CSF vs untreated [2] [fold]	increase of scyllo-cyclohexanehexyl level in brain vs untreated [2] [fold]	swim path length vs untreated controls (TgCRND8 mice [3]; TgCRND8 mice, 0.3 mg/kg/day, 28 days from 3 to 4 months)	effect on cognitive dysfunction and plaque burden (TgCRND8 mice [3]; TgCRND8 mice, 0.3 mg/kg/day, compared to untreated animals)	effect on cognitive dysfunction and plaque burden (TgCRND8 mice [3]; TgCRND8 mice, 1.0 mg/kg/day)	swim path length on day 5 of training vs untreated animals (TgCRND8 mice [3]; TgCRND8 mice, 3.3 mg/kg/day, 28 days from 3 to 4 months, p=0.04)	effect on cognitive dysfunction and plaque burden (TgCRND8 mice [3]; TgCRND8 mice, 3.3 mg/kg/day)	dose providing efficacy in terms of behaviour and Aβ accumulation (TgCRND8 mice [3]; young CRND8 mice dosed 12-16 weeks of age, oral) [mg/kg/day]	dose showing maximum effectiveness at reducing plaques (Aβ42) [mg/kg/day]	dose providing effective alleviation of cognitive dysfunction (lowest dose administered orally) [4]
OC1C(O)C(O)C(O)C(O)C1O (centres unmarked) [AZD-103, scyllo-inositol]	increased synaptic density	–	–	–	–	–	–	–	–	–	–
scyllo-inositol [AZD-103]	–	10	7	indistinguishable from untreated controls	no observed effect	partial effectiveness	significantly shorter swim path length	significant alleviation of cognitive dysfunction and reduction in plaque burden	3.3	30	approximately 30 mg/kg/day
